In experiment [1] the target is T1, GST-tagged KRAS-G12D (2-169) (Homo sapiens, UniProt P01116, G12D).
T1 construct: GST-tagged KRAS-G12D (2-169, Reaction Biology, MSC-11-539); purchased Reaction Biology MSC-11-539 (KRAS G12D); MSC-11-502 (SOS1cat)
Description: Nucleotide exchange assay (NEA), SOS-mediated, HTRF, KRAS G12D. It counts as biochemical. To be noted: IC50 extracted at 30 min. In outline: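 GST-KRAS-G12D (2-169, 5 nM final) with Tb-anti-GST donor was preincubated with compound 1 h at RT (pH 7.3 HEPES buffer, MgCl2, DTT), then SOScat (564-1049, 20 nM) and GTP-DY-647P1 (150 nM) were added. HTRF was read at RT; % inhibition vs DMSO/no-SOS blank, 4-parameter IC50 taken at 30 min.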

Experiment [2] relates to GP2D cells (KRAS G12D), phospho-ERK. In words: pERK In Cell Western (ICW) assay, GP2D cells. It counts as cell-based. To be noted: Table 4, 3 hours. On the procedure: pERK ICW is a high throughput screening assay to evaluate the cellular potency of mutant KRAS small molecule inhibitors. KRAS mutant cell lines AGS and GP2D (KRAS^G12D) were purchased from ATCC and maintained respectively in RPMI and DMEM medium supplemented with 10% fetal bovine serum and Penicillin/Streptomycin.
Cells grown in exponential phase were trypsinized, resuspended in fresh media, and viable cells were counted using a cell counter with Trypan Blue (BioRad TC20). Cells were seeded into 384-well plate (Greiner 781091) at density of 5,000 cells/well for AGS and 10,000 cells/well for GP2D and allowed to grow overnight in a 37° C. CO2 incubator. The next day, compounds were dispensed into wells with a ½ log, 10-point serial dilution and top concentration of […] using Tecan D300e dispenser and incubated for 3 hours in a 37° C. CO2 incubator. Cells were then fixed with paraformaldehyde (Electron Microscopy Sciences, 15710, 4% final concentration) for 30 min, permeabilized with wash buffer (1×PBS+0.1% Triton X-100) for 30 min and blocked with Odyssey blocking buffer (Li—COR 927-70001) for 1 hour, all at room temperature (RT). Phospho-ERK antibody (CST 4370L) was diluted 1:500 in Odyssey blocking+0.2% Tween 20 and incubated with cells overnight at 4° C. The next day, plates were washed 5× with wash buffer, incubated with IRDye 800 CW, Goat anti-Rabbit secondary antibody (Li—COR 926-32211, 1:500) and DRAQ5 (CST 4084L, 1:5,000) diluted in Odyssey blocking+0.2% Tween 20 for 1 hour, washed 5×, and imaged on an Odyssey CLx imaging system.
For data analysis, signal intensities from 800 (phosphor-ERK) and 700 (DRAQ5) channels were extracted, and phospho-ERK signals were normalized to DRAQ5 signals for each well and percent of DMSO control values were computed. Data were then imported into Graphpad Prism to compute half-maximal inhibitory concentrations (IC50) using a 4-parameter variable slope model. Z-factor for each plate was computed from signals derived from wells treated with either DMSO or […] of Trametinib. AGS pERK ICW (Method B) IC50 (uM) values of selected compounds are depicted in Table 2 with compounds having a value 0.001 uM to 0.01 uM as ++++; >0.01 uM to 0.1 uM as +++; >0.1 uM to 1 uM as ++; 1 uM to 10 uM as + and >10 uM as NA.

Bounds are passed on as bounds.

T1 sequence (P01116 2-169 isoform P01116-2 G12D): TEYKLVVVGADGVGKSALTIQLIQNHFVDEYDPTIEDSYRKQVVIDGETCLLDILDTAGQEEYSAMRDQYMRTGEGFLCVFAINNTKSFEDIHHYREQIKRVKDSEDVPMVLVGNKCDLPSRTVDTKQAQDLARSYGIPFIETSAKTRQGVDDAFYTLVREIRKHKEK

A word on the IC50: it is the point on the concentration scale where inhibition reaches its midpoint. Higher therefore signals lower potency. For the molecule `CN(C)CC1(COc2nc(N3C[C@H]4CC[C@@H](C3)N4)c(C#N)c(N3CC4(CCc5sc(N)c(C#N)c54)C3)n2)CC1(F)F` (mixture of isomers) [Compound 74, 2-amino-1′-[5-cyano-6-(3,8-diazabicyclo[3.2.1]octan-3-yl)-2-[[1-[(dimethylamino)methyl]-2,2-difluoro-cyclopropyl]methoxy]pyrimidin-4-yl]spiro[5,6-dihydrocyclopenta[b]thiophene-4,3′-azetidine]-3-carbonitrile], the IC50 in experiment [1] (Table 4) lay in the range of 0.01 to 0.1 µM; in experiment [2], 1 to 10 µM.
As for `CN(C)C(=O)c1nn2c(c1Cl)CN(c1nc(OC[C@@]34CCCN3C[C@H](F)C4)nc(N3CC4(CCc5sc(N)c(C#N)c54)C3)c1C#N)CCC2` [Compound 2, 5-[6-(2-amino-3-cyano-spiro[5,6-dihydrocyclopenta[b]thiophene-4,3′-azetidine]-1′-yl)-5-cyano-2-[[(2R,8S)-2-fluoro-1,2,3,5,6,7-hexahydropyrrolizin-8-yl]methoxy]pyrimidin-4-yl]-3-chloro-N,N-dimethyl-4,6,7,8-tetrahydropyrazolo[1,5-a][1,4]diazepine-2-carboxamide], the 50% inhibitory concentration (IC50) was less than 0.01 µM in experiment [1] (Table 2), less than 0.01 µM in experiment [1] (Table 4) and 0.001 to 0.01 µM in experiment [2].
On to `CN(C)C(=O)c1nn2c(c1Cl)CN(c1nc(OC[C@@]34CCCN3C[C@H](F)C4)nc(N3CC4(CCCc5sc(N)c(C#N)c54)C3)c1C#N)CCC2` [Compound 3, 5-[6-(2-amino-3-cyano-spiro[6,7-dihydro-5H-benzothiophene-4,3′-azetidine]-1′-yl)-5-cyano-2-[[(2R,8S)-2-fluoro-1,2,3,5,6,7-hexahydropyrrolizin-8-yl]methoxy]pyrimidin-4-yl]-3-chloro-N,N-dimethyl-4,6,7,8-tetrahydropyrazolo[1,5-a][1,4]diazepine-2-carboxamide], for which the IC50 is less than 0.01 µM in experiment [1] (Table 2), less than 0.01 µM in experiment [1] (Table 4) and 0.001 to 0.01 µM in experiment [2].
Turning to `N#Cc1c(N2C[C@H]3CC[C@@H](C2)N3)nc(OCC2(CN3CCOCC3)CC2)nc1N1CC2(CCc3sc(N)c(C#N)c32)C1` [Compound 4, 2-amino-1′-[5-cyano-2-[[1-(morpholinomethyl)cyclopropyl]methoxy]-6-[(1R,5S)-3,8-diazabicyclo[3.2.1]octan-3-yl]pyrimidin-4-yl]spiro[5,6-dihydrocyclopenta[b]thiophene-4,3′-azetidine]-3-carbonitrile], the IC50 in experiment [1] (Table 4) is less than 0.01 µM; in experiment [2] it was 0.001 to 0.01 µM.
The corresponding values for `CN(C)C(=O)c1nn2c(c1Cl)CN(c1nc(OCC3(CN4CCOCC4)CC3)nc(N3CC4(CCc5sc(N)c(C#N)c54)C3)c1C#N)CCC2` [Compound 5, 5-[6-(2-amino-3-cyano-spiro[5,6-dihydrocyclopenta[b]thiophene-4,3′-azetidine]-1′-yl)-5-cyano-2-[[1-(morpholinomethyl)cyclopropyl]methoxy]pyrimidin-4-yl]-3-chloro-N,N-dimethyl-4,6,7,8-tetrahydropyrazolo[1,5-a][1,4]diazepine-2-carboxamide] are less than 0.01 µM and 0.001 to 0.01 µM.
The corresponding values for `N#Cc1c(N)sc2c1C1(CC2)CN(c2nc(OC[C@@]34CCCN3C[C@H](F)C4)nc(N3CCC[C@]4(C3)NC(=O)NC4=O)c2F)C1` [Compound 7, 2-amino-1′-[6-[(5R)-2,4-dioxo-1,3,9-triazaspiro[4.5]decan-9-yl]-5-fluoro-2-[[(2R,8S)-2-fluoro-1,2,3,5,6,7-hexahydropyrrolizin-8-yl]methoxy]pyrimidin-4-yl]spiro[5,6-dihydrocyclopenta[b]thiophene-4,3′-azetidine]-3-carbonitrile] are less than 0.01 µM and 0.1 to 1 µM.
The matching figures for `CN(C)C(=O)c1cc2n(n1)CCCN(c1nc(OC[C@@]34CCCN3C[C@H](F)C4)nc(N3CC4(CCc5sc(N)c(C#N)c54)C3)c1C#N)C2` [Compound 8, 5-[6-(2-amino-3-cyano-spiro[5,6-dihydrocyclopenta[b]thiophene-4,3′-azetidine]-1′-yl)-5-cyano-2-[[(2R,8S)-2-fluoro-1,2,3,5,6,7-hexahydropyrrolizin-8-yl]methoxy]pyrimidin-4-yl]-N,N-dimethyl-4,6,7,8-tetrahydropyrazolo[1,5-a][1,4]diazepine-2-carboxamide]: less than 0.01 µM and 0.001 to 0.01 µM.
With `CN(C)C(=O)c1nn2c(c1Cl)CN(c1nc(OC[C@@]34CCCN3C[C@H](F)C4)nc(N3CC4(CCc5sc(N)c(C#N)c54)C3)c1F)CCC2` [Compound 9, 5-[6-(2-amino-3-cyano-spiro[5,6-dihydrocyclopenta[b]thiophene-4,3′-azetidine]-1′-yl)-5-fluoro-2-[[(2R,8S)-2-fluoro-1,2,3,5,6,7-hexahydropyrrolizin-8-yl]methoxy]pyrimidin-4-yl]-3-chloro-N,N-dimethyl-4,6,7,8-tetrahydropyrazolo[1,5-a][1,4]diazepine-2-carboxamide], the IC50 in experiment [1] (Table 4) was less than 0.01 µM; in experiment [2], 0.01 to 0.1 µM.
The matching figures for `CN(C)C(=O)c1nn2c(c1Cl)CN(c1nc(OC[C@@]34CCCN3C[C@H](F)C4)nc(N3CC4(CCCCc5sc(N)c(C#N)c54)C3)c1C#N)CCC2` [Compound 10, 5-[6-(2-amino-3-cyano-spiro[5,6,7,8-tetrahydrocyclohepta[b]thiophene-4,3′-azetidine]-1′-yl)-5-cyano-2-[[(2R,8S)-2-fluoro-1,2,3,5,6,7-hexahydropyrrolizin-8-yl]methoxy]pyrimidin-4-yl]-3-chloro-N,N-dimethyl-4,6,7,8-tetrahydropyrazolo[1,5-a][1,4]diazepine-2-carboxamide]: less than 0.01 µM and 0.01 to 0.1 µM.
The matching figures for `N#Cc1c(N2CC3(CCc4sc(N)c(C#N)c43)C2)nc(OC[C@@]23CCCN2C[C@H](F)C3)nc1N1CCC[C@]2(C1)NC(=O)NC2=O` [Compound 11, 2-amino-1′-[5-cyano-6-[(5R)-2,4-dioxo-1,3,9-triazaspiro[4.5]decan-9-yl]-2-[[(2R,8S)-2-fluoro-1,2,3,5,6,7-hexahydropyrrolizin-8-yl]methoxy]pyrimidin-4-yl]spiro[5,6-dihydrocyclopenta[b]thiophene-4,3′-azetidine]-3-carbonitrile]: less than 0.01 µM and 1 to 10 µM.
As to `N#Cc1c(N2CCCC3(C2)NC(=O)NC3=O)nc(OC[C@@]23CCCN2C[C@H](F)C3)nc1N1CC2(CCc3sc(N)c(C#N)c32)C1` (stereo partly drawn) [Compound 12, 2-amino-1′-[5-cyano-6-(2,4-dioxo-1,3,9-triazaspiro[4.5]decan-9-yl)-2-[[(2R,8S)-2-fluoro-1,2,3,5,6,7-hexahydropyrrolizin-8-yl]methoxy]pyrimidin-4-yl]spiro[5,6-dihydrocyclopenta[b]thiophene-4,3′-azetidine]-3-carbonitrile], the IC50 in experiment [1] (Table 4) is less than 0.01 µM; in experiment [2], 1 to 10 µM.
The matching figures for `CC(=O)c1nn2c(c1Cl)CN(c1nc(OC[C@@]34CCCN3C[C@H](F)C4)nc(N3CC4(CCc5sc(N)c(C#N)c54)C3)c1C#N)CCC2` [Compound 13, 1′-[6-(2-acetyl-3-chloro-4,6,7,8-tetrahydropyrazolo[1,5-a][1,4]diazepin-5-yl)-5-cyano-2-[[(2R,8S)-2-fluoro-1,2,3,5,6,7-hexahydropyrrolizin-8-yl]methoxy]pyrimidin-4-yl]-2-amino-spiro[5,6-dihydrocyclopenta[b]thiophene-4,3′-azetidine]-3-carbonitrile]: less than 0.01 µM and 0.001 to 0.01 µM.
The corresponding values for `CC1CC2(CN(c3nc(OC[C@@]45CCCN4C[C@H](F)C5)nc(N4CCCn5nc(C(=O)N(C)C)c(Cl)c5C4)c3C#N)C2)c2c1sc(N)c2C#N` (stereo partly drawn) [Compound 14, 5-[6-(2-amino-3-cyano-6-methyl-spiro[5,6-dihydrocyclopenta[b]thiophene-4,3′-azetidine]-1′-yl)-5-cyano-2-[[(2R,8S)-2-fluoro-1,2,3,5,6,7-hexahydropyrrolizin-8-yl]methoxy]pyrimidin-4-yl]-3-chloro-N,N-dimethyl-4,6,7,8-tetrahydropyrazolo[1,5-a][1,4]diazepine-2-carboxamide] are less than 0.01 µM and 0.001 to 0.01 µM.

These data come from patent publication US12145947B2, “Pyrimidine based modulators and uses thereof” (Quanta Therapeutics, Inc., priority 2022, dated 2024).
